# In patent publication US11896007B2, “Pest control using natural pest control agent blends” (TYRATECH, INC., priority 2008, dated 2024):
# pKd, pKi: −log10 of the molar value.
# Legend:
# [1] = target: T1, Drosophila tyramine receptor (droTyrR) (Drosophila melanogaster, UniProt P22270, C261Y); assay: Intracellular calcium ([Ca2+]i) in S2 cells stably transfected with Drosophila tyramine receptor (Fura-2 AM); assay type: cell-based; conditions: 1 μM; Dro-TyrR-expressing S2 cells; no increase in pAC control cells (FIG. 25)
# T1 construct: The open reading frame contained in this PCR product encodes a protein of 601 amino acids; expressed in transfected cells
# T1 sequence (P22270 27-601 C261Y): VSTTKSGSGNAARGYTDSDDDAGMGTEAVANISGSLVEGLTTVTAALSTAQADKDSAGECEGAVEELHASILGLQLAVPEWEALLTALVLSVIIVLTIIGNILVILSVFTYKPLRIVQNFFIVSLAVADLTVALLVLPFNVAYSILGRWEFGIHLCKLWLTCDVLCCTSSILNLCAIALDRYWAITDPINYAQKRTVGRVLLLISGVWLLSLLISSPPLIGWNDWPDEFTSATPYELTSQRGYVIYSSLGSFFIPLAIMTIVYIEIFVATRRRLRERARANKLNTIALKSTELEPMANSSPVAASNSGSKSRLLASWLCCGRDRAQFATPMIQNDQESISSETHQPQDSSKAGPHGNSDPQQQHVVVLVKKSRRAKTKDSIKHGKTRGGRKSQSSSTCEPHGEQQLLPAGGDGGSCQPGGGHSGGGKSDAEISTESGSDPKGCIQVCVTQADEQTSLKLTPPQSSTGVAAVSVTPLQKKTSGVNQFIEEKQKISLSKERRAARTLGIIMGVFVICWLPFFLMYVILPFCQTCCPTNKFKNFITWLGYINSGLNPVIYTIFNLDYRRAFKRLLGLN
# Method: The blend (at a final concentration of 0.5 mg/mL) was tested on a Drosophila Scheider 2 (“S2”) cell line that was stably transfected with a DNA encoding a tyramine receptor that was amplified from a Drosophila melanogaster head cDNA phage library (“droTyrR”). The intracellular calcium levels (“[Ca^2+]i”) in the treated S2 cells were then measured as a function of time. As a comparison, the a solution of carrier (canola oil, final concentration=0.12 mg/mL) and a solution of surfactant (sugar ester OWA-1570) in insect saline were tested separately.
# In a separate set of experiments, the blend (at a final concentration of 0.5 mg/mL) was tested on a Drosophila Scheider 2 (“S2”) cell line that was stably transfected with droTyrR DNA, and the intracellular calcium levels (“[Ca^2+]i”) in the treated S2 cells were then measured as a function of time. […]
# In yet another separate set of experiments, the blend (at a final concentration of 0.5 mg/mL) was tested on a Drosophila Scheider 2 (“S2”) cell line that was stably transfected with droTyrR DNA, and the intracellular calcium levels (“[Ca^2+]i”) in the treated S2 cells were then measured as a function of time. […]
# Increased cytoplasmic concentrations of IP3 induce release of Ca2+ from the endoplasmic reticulum. […] Data are normalized by dividing each value by the background fluorescence at the beginning of the assay before adding the test sample. […]
# [2] = target: T2, Drosophila TyrR (Drosophila melanogaster, UniProt P22270, C261Y); assay: Competitive tyramine receptor binding assay with 3H-tyramine
# T2 construct: The open reading frame contained in this PCR product encodes a protein of 601 amino acids; expressed in transfected cells
# T2 sequence (P22270 27-601 C261Y): T1 sequence (P22270 27-601 C261Y)
# [3] = target: T2, Drosophila TyrR; assay: 3H-tyramine saturation binding to membranes of S2 cells expressing TyrR; conditions: 0.1 to 30 nM 3H-tyramine
# Method: To first isolate membranes, Dro-TyrR-expressing S2 cells grown in Drosophila media are harvested in the same media by scraping from the dishes and then rinsing dishes with PBS. The cells are centrifuged at 1000 g for 3 min, washed once with PBS and centrifuged again as previously described. The cells are suspended in ice cold hypotonic buffer (10 mM Tris-Cl, pH 7.4), incubated on ice for 10 min, and lysed using a glass Bounce homogenizer and tight glass pestle (Kontes Glass Co., Vineland, N.J.) with 10 strokes. Nuclei are pelleted by centrifugation at 600 g for 5 min. The supernatant is decanted and centrifuged at 30,000 g for 30 min to pellet a crude membrane fraction. The pellet is suspended in binding buffer (50 mM Tris-Cl, 5 mM MgCl2, pH 7.4). Protein concentration is determined by the Bradford Assay (Bio-Rad Laboratories, Hercules, Calif.). Membranes are frozen on dry ice then stored at −75° C. in aliquots.
# […] The binding reaction is incubated at 23° C. in the presence and absence of 10 μM unlabeled tyramine. Reactions are terminated after 60 min by addition of 3 ml ice cold binding buffer and filtered over GF/C filters that have been soaked for 30 min in 0.3% polyethylenimine. Filters are rinsed one additional time with 3 ml binding buffer. […]
smiles,measurement,setting,value
"NCCc1ccc(O)cc1 [Tyramine (TA), Tyramine]",Ca2+-bound Fura-2 AM fluorescence,[1],sharp increase
same,affinity for TyrR relative to DL-octopamine,[2]; ratio of Ki values,about 22.58 fold
NCCc1ccc(O)cc1 [^3H-tyramine],pKd,"[3]; 10 μM unlabeled tyramine for nonspecific binding, read-out: Kd for specific binding",8.59
same,Bmax for specific binding,[3]; membranes of TyrR-expressing S2 cells,0.679 pmol receptor/mg membrane protein
"NCC(O)c1ccc(O)cc1 (racemic) [Octopamine (OA), DL-octopamine]",pKi,[2]; competitive binding with 3H-tyramine,4.54
